Consider 28 compounds from patent publication EP1282680B1, “COMPOSITIONS COMPRISING CYCLODEXTRIN” (THE PROCTER & GAMBLE COMPANY, priority 2000, dated 2001).

Counter-ions that a name gives are not always drawn.

One series in a line: Elevation of surfactant surface tension in the presence of cyclodextrin. It is filed as physicochemical. The settings on record: in the presence of a typical cyclodextrin like hydroxypropyl beta-cyclodextrin and methylated beta-cyclodextrin (1%). The text has this: Cyclodextrin-incompatible surfactants generally can be readily identified by the noticeable effect of cyclodextrin on the surface tension provided by the cyclodextrin-incompatible surfactant This is achieved by determining the surface tension (in dyne/cm) of aqueous solutions of the cyclodextrin-incompatible surfactant in the presence and in the absence of 1% of a specific cyclodextrin in the solutions. The aqueous solutions contain cyclodextrin-incompatible surfactant at concentrations of approximately 0.5%, 0.1%, 0.01%, and 0.005%. The cyclodextrin can affect the surface activity of a surfactant by elevating the surface tension of the surfactant solution. […]
Suitable cyclodextrin-compatible surfactants can also be readily identified by the absence of effect of cyclodextrin on the surface tension provided by the surfactant. […]
On to `CCCCCCCCCCCCOS(=O)(=O)[O-].[Na+]` [Sodium dodecyl sulfate], for which the “elevation in surface tension” value is given as > 10%. Still for that read-out and setting: in the case of dodecanolpoly(6)ethoxylate it was > 10%.

Another series can be described thus: Complexation constant with cyclodextrin, spectral displacement method with phenolphthalein. It is filed as binding. Particulars: unit not given, the text gives complexation constants in M^-1. The text has this:
(§1) A spectral displacement method with phenolphthalein is used to determine the complexation constant between cyclodextrin and a given material, especially for surfactants. This method of determining complexation constants with cyclodextrins is described in detail in the following references: Sasaki, KJ., Christian, S.D., and Tucker, E.E., "Study of the Stability of 1:1 Complexes Between Aliphatic Alcohols and b-Cyclodextrins in Aqueous Solution," Fluid Phase Equilibria, Vol. 49, (Amsterdam, Elsevier Science Publishers, 1989), pp. 281-89. Further information regarding spectral displacement methods can be found in other references, e.g. in Wilson, L.D., Siddall, S.R, and Verrall RE., "A Spectral Displacement Study of the Binding Constants of Cyclodextrin-Hydrocarbon and - Fluorocarbon Surfactant Inclusion Complexes," Canadian Journal of Chemistry, Vol. 75, (NRC Canada 1997), pp. 927-933.
The test method is based on the fact that phenolphthalein will complex with cyclodextrin and in complexed form is colorless. However, it has a strong color at pH 10.5 when in non-complexed form. Other, cyclodextrin-incompatible, materials themselves complex with the cyclodextrin and prevent the phenolphthalein from doing so. Thus the higher the complexation constant of the other component with cyclodextrin, the more non-complexed phenolphthalein will be present and the stronger the observed color.
The complexation constant of a given material with cyclodextrin is obtained by an absorbance measurement in the visible region at 550 nm that is performed with a spectrophotometer at room temperature. All solutions are prepared in 4.0 x 10^-3 mol/l Na2CO3 solution to maintain a constant pH. The concentration of phenolphthalein is kept constant at 3.0 x 10^-5 mol/l. Cyclodextrin concentration and surfactant concentration are varied. Here, optimum parameter values for absorption coefficient of phonolphthalein at 550 nm is 33,000 M^-1 cm^-1, and the complexation constants of phenolphthalein with cyclodextrin and cyclodextrin derivatives are preliminary obtained. […] Complexation constants of cyclodextrin-compatible and/or cyclodextrin-incompatible materials arc determined with using the free, uncomplexed phenolphthalein concentration obtained by absorbance at 550 nm.
On to `CCCCCCCCCCCC[N+](C)(C)C.[Br-]` [Dodecyltrimethylammonium bromide], for which the “Complexation Constant (K)” value is on record as “about 18100”.

In the case of `CCCCCCCCCCCCOS(=O)(=O)[O-].[Na+]` [Sodium dodecyl sulfate], the “Complexation Constant (K)” value is “about 22000”.

Consider `CCCCCCCCCCCC(=O)[O-].[Na+]` [Sodium laurate], for which the “Complexation Constant (K)” value is reported as “about 16000”.

As to Lauramine oxide, the “Complexation Constant (K)” value was “about 7500”.

Consider Lawreth-6, for which the “Complexation Constant (K)” value is “about 10000”.

Test in a further series: not given
The settings on record: cited from earlier work.
As for `[H]/N=C(\N/C(=N/[H])NCCCCCCNC(=N)NC(=N)Nc1ccc(Cl)cc1)Nc1ccc(Cl)cc1` [diacetate salt, 1,1'-hexamethylene bis(5-(p-chlorophenyl)biguanide)], the solubility in water is reported as 1.8%. With `[H]/N=C(\N/C(=N/[H])NCCCCCCNC(=N)NC(=N)Nc1ccc(Cl)cc1)Nc1ccc(Cl)cc1` [digluconate salt, 1,1'-hexamethylene bis(5-(p-chlorophenyl)biguanide)], the solubility in water is listed as 70%.

A short description of the next series: Complexation constant of phenolphthalein with beta-cyclodextrin, absorbance at 550 nm. It is filed as binding. The settings on record: room temperature, 4.0 x 10^-3 mol/l Na2CO3 solution, pH 10.5.
Text: as §1, with “927-933. […]” for “927-933.”
The complexation constant of a given material with cyclodextrin is obtained by an absorbance measurement in the visible region at 550 nm that is performed with a spectrophotometer at room temperature. […] Complexation constants of cyclodextrin-compatible and/or cyclodextrin-incompatible materials arc determined with using the free, uncomplexed phenolphthalein concentration obtained by absorbance at 550 nm.
`O=C1OC(c2ccc(O)cc2)(c2ccc(O)cc2)c2ccccc21` [phenolphthalein]: the “complexation constant of phenolphthalein with beta-cyclodextrin” value is “about 21,000 M^-1”.

The next series can be described thus: CD interaction of perfume components. Particulars: weak = cyclodextrin-compatible; significant or strong = cyclodextrin-incompatible. Type of series: physicochemical. The text has this:
The following table illustrates the molecular weight property of some of the cyclodextrin-incompatible enduring (hydrophobic) perfume materials (i.e. having significant or strong CD interaction) versus cyclodextrin-compatible perfume materials (i.e. having weak CD interaction).
For the compound `CC(C=O)Cc1ccc(C(C)C)cc1` (centres unmarked) [Cymal], the CD interaction result is given as “strong”.

Consider `CCOC(=O)c1ccccc1C(=O)OCC` [Diethyl Phthalate], for which the CD interaction result is reported as “weak”.

Consider `CC(=O)OC1CC2CC1C1CC=CC21` (centres unmarked) [Flor Acetate], for which the CD interaction entry is listed as “strong”. Same read-out and setting: in the case of `CCC(=O)OC1CC2CC1C1CC=CC21` (centres unmarked) [Frutene] it was “strong”; in that of `CC1COCc2cc3c(cc21)C(C)(C)C(C)C3(C)C` (centres unmarked) [Galaxolide], “weak”; in that of `CCCCCCOC(=O)c1ccccc1O` [Hexyl Salicylate], “weak”. On the same count and under the same terms, in the case of `CCCCCCC(C=O)=Cc1ccccc1` [Hexyl cinnamic Aldehyde] it was “weak”; in that of `CC(=O)C1(C)CC2=C(CCCC2(C)C)CC1C` (centres unmarked) [Iso-E Super], “weak”; in that of `CCCCCCCCCCCCCC(=O)OC(C)C` [Iso-propyl Myristate], “weak”. Same read-out and setting: in the case of `CC(=O)C(C)=C(C)C(C)C(C)(C)C` (centres unmarked) [Koavone] it was “strong”. For the compound `CC(C=O)Cc1ccc(C(C)(C)C)cc1` (centres unmarked) [Lilial, p-t-bucinal], the CD interaction entry is given as “strong”. For `CC(C)(O)CCCC1=CCC(C=O)CC1` (centres unmarked) [Lyral], the CD interaction entry is listed as “weak”. For `CCCCCC1C(=O)CCC1CC(=O)OC` (centres unmarked) [Methyl Dihydro Jasmonate], the CD interaction result is given as “weak”.

Turning to `O=C(Cc1ccccc1)OCCc1ccccc1` [Phenyl-Ethyl-Phenyl Acetate], the CD interaction result is listed as “weak”. The same measure, in the same setting: in the case of `CC(=O)OC(C)(C)C1CC=C(C)CC1` (centres unmarked) [Terpinyl Acetate] it was “significant”; in that of `CCC(C)(O)CCCC(C)C` (centres unmarked) [Tetrahydrolinalol], “significant”.

Regarding `CC(=O)OC1CCC(C(C)(C)C)CC1` (centres unmarked) [Vertenex, para-tert-butylcyclohexyl acetate], the CD interaction entry is listed as “strong”. On to `CC(=O)/C=C/C1C(C)=CCCC1(C)C` (centres unmarked) [a-ionone], for which the CD interaction result was “strong”.

On to a-Me Ionone, for which the CD interaction result is on record as “strong”.
